Like-named read-outs stand apart in the source and are kept apart here.
Legend:
Type in all cases: cell-based
[1] = system: Salmonella (S. aarhus, S. muenster E1 & S. worthington); conditions: for inhibition of Salmonella, clear zone around the kibbles: coated kibbles, overnight at 30° C.; for Zone of Inhibition-Diameter, Mean / Zone of Inhibition-Diameter, REP I Plate 1 / Zone of Inhibition-Diameter, REP I Plate 2 / Zone of Inhibition-Diameter, REP II Plate 1 / Zone of Inhibition-Diameter, REP II Plate 2 / Zone of Inhibition-Diameter, REP III Plate 1 / Zone of Inhibition-Diameter, REP III Plate 2: kibble coated
Procedure: The kibble diffusion test has similar principles as the disk diffusion method. […] […] Efficacy of the AMI was validated by measuring how closely the Salmonella cultures grew with respect to the saturated kibbles.
Commercial canine and feline adult pet food compositions in the form of kibbles were coated with potential AMIs. […] After incubation overnight at 30° C., plates were analyzed for presence of clear zones around the kibbles.

[2] = system: Salmonella (S. aarhus, S. muenster E1 & S. worthington)
Text: This test is typically used for antibiotic sensitivity in bacteria and was adapted to measure Salmonella growth suppression by ingredients with potential antimicrobial (AMI) activity. Discs of filter paper, approximately 5 mm in diameter, were soaked in an AMI at 1%, 2%, and 3%, except for oregano, which was soaked at 0.1%, 0.2% and 0.4% solution and placed on a Petri dish with standard methods agar with tetraphenyltetrazolium (TTC) that has been smeared with a standardized suspension of Salmonella (S. aarhus, S. muenster E1 & S. worthington). Efficacy of the AMI was validated by measuring how closely the Salmonella cultures grew with respect to the saturated filter paper.
Ingredients were screened for antimicrobial activity using the Disc Diffusion Test. Solutions of 1%, 2%, and 3% were prepared for each of these ingredients, except for oregano, which was prepared at 0.1%, 0.2%, and 0.4%. Soaking of the disks, placing them on a Standard Methods agar plate with TTC smeared with Salmonella and overnight incubation were done as discussed above. Efficacy of these ingredients was determined by measuring the clear zones (mm) around the disks (Table 2).

[3] = system: Salmonella (S. aarhus, S. muenster E1 and S. worthington); design: key to Salmonella growth or inhibition (MIC test): −: negative sign means inhibition; +: positive sign denotes growth
Procedure: The minimum inhibitory concentration (MIC) of an antimicrobial ingredient is defined as the maximum dilution of the product that will still inhibit the growth of Salmonella. Serial dilutions (0-3%, except for oregano 0-0.3%) were made of the AMI in bacterial growth media and poured in test tubes. The test organisms (S. aarhus, S. muenster E1 and S. worthington) were then added to the dilutions of the AMI ingredients to a final concentration of 10^6 or 10^3 cfu/g, incubated overnight at 30° C., and scored for growth by turbidity or plate counts.
Minimum Inhibitory Concentration was conducted for 10^3 and 10^6 cfu/g Salmonella. Results reported as negative sign means inhibition, while positive sign denotes growth.

CCC(=O)[O-].CCC(=O)[O-].[Ca+2] [Ca propionate liquid, Ca propionate]
inhibition of Salmonella, clear zone around the kibbles [1]: inhibited Salmonella
Zone of Inhibition-Diameter, Mean ([1]; 1% solution): 9 mm
Zone of Inhibition-Diameter, REP I Plate 1 ([1]; 1% solution): 5 mm
Zone of Inhibition-Diameter, REP I Plate 2 ([1]; 1% solution): 16 mm
Zone of Inhibition-Diameter, REP II Plate 1 ([1]; 1% solution): 4 mm
Zone of Inhibition-Diameter, REP II Plate 2 ([1]; 1% solution): 9 mm
Zone of Inhibition-Diameter, REP III Plate 1 ([1]; 1% solution): 9 mm
Zone of Inhibition-Diameter, REP III Plate 2 ([1]; 1% solution): 9 mm
Zone of Inhibition-Diameter, Mean ([1]; 2% solution): 17 mm
Zone of Inhibition-Diameter, REP I Plate 1 ([1]; 2% solution): 19 mm
Zone of Inhibition-Diameter, REP I Plate 2 ([1]; 2% solution): 14 mm
Zone of Inhibition-Diameter, REP II Plate 1 ([1]; 2% solution): 18 mm
Zone of Inhibition-Diameter, REP II Plate 2 ([1]; 2% solution): 19 mm
Zone of Inhibition-Diameter, REP III Plate 1 ([1]; 2% solution): 16 mm
Zone of Inhibition-Diameter, REP III Plate 2 ([1]; 2% solution): 14 mm
Zone of Inhibition-Diameter, Mean ([1]; 3% solution): 21 mm
Zone of Inhibition-Diameter, REP I Plate 1 ([1]; 3% solution): 20 mm
Zone of Inhibition-Diameter, REP I Plate 2 ([1]; 3% solution): 15 mm
Zone of Inhibition-Diameter, REP II Plate 1 ([1]; 3% solution): 19 mm
Zone of Inhibition-Diameter, REP II Plate 2 ([1]; 3% solution): 25 mm
Zone of Inhibition-Diameter, REP III Plate 1 ([1]; 3% solution): 24 mm
Zone of Inhibition-Diameter, REP III Plate 2 ([1]; 3% solution): 25 mm

O=P(O)(O)O [Inorganic Acid (Phosphoric acid), Phosphoric Acid]
clear zone around disk, Partial ([2]; R 1 (*3 replicates)): 9.33 mm
clear zone around disk, Total ([2]; R 1 (*3 replicates)): 16.67 mm
clear zone around disk, Partial ([2]; R 2): 14.33 mm
clear zone around disk, Total ([2]; R 2): 24.0 mm
clear zone around disk, Partial ([2]; R 3): 21.0 mm
clear zone around disk, Total ([2]; R 3): 28.33 mm
Antimicrobial activity against Salmonella, decreasing order ([2]; order printed: Phosphoric acid>Phenols, pH 4.25-4.85>Oleoresin Oregano>92% Sodium Lactate and 6% Sodium Diacetate>Phenols, pH 4.8-6.0): Antimicrobial activity against Salmonella was observed
inhibition of Salmonella, clear zone around the kibbles [1]: inhibited Salmonella
Zone of Inhibition-Diameter, Mean ([1]; 3%): 8 mm
Zone of Inhibition-Diameter, REP I Plate 1 ([1]; 3%): 9 mm
Zone of Inhibition-Diameter, REP I Plate 2 ([1]; 3%): 7 mm
Zone of Inhibition-Diameter, REP II Plate 1 ([1]; 3%): 7 mm
Zone of Inhibition-Diameter, REP II Plate 2 ([1]; 3%): 9 mm
Zone of Inhibition-Diameter, REP III Plate 1 ([1]; 3%): 9 mm
Zone of Inhibition-Diameter, REP III Plate 2 ([1]; 3%): 7 mm
Salmonella growth or inhibition (MIC test) ([3]; 10^3 cfu/g Salmonella, antimicrobial level 0.03%): +
Salmonella growth or inhibition (MIC test) ([3]; 10^3 cfu/g Salmonella, antimicrobial level 0.15%): +
Salmonella growth or inhibition (MIC test) ([3]; 10^3 cfu/g Salmonella, antimicrobial level 0.3%): +
Salmonella growth or inhibition (MIC test) ([3]; 10^3 cfu/g Salmonella, antimicrobial level 0.9%): −
Salmonella growth or inhibition (MIC test) ([3]; 10^3 cfu/g Salmonella, antimicrobial level 1.5%): −
Salmonella growth or inhibition (MIC test) ([3]; 10^3 cfu/g Salmonella, antimicrobial level 2.1%): −
Salmonella growth or inhibition (MIC test) ([3]; 10^3 cfu/g Salmonella, antimicrobial level 3%): −
Salmonella growth or inhibition (MIC test) ([3]; 10^3 cfu/g Salmonella, antimicrobial level […]): −
Salmonella growth or inhibition (MIC test) ([3]; 10^6 cfu/g Salmonella, antimicrobial level 0.03%): +
Salmonella growth or inhibition (MIC test) ([3]; 10^6 cfu/g Salmonella, antimicrobial level 0.15%): +
Salmonella growth or inhibition (MIC test) ([3]; 10^6 cfu/g Salmonella, antimicrobial level 0.3%): +
Salmonella growth or inhibition (MIC test) ([3]; 10^6 cfu/g Salmonella, antimicrobial level 0.9%): −
Salmonella growth or inhibition (MIC test) ([3]; 10^6 cfu/g Salmonella, antimicrobial level 1.5%): −
Salmonella growth or inhibition (MIC test) ([3]; 10^6 cfu/g Salmonella, antimicrobial level 2.1%): −
Salmonella growth or inhibition (MIC test) ([3]; 10^6 cfu/g Salmonella, antimicrobial level 3%): −
Salmonella growth or inhibition (MIC test) ([3]; 10^6 cfu/g Salmonella, antimicrobial level […]): −

— patent US20170042193A1, “Pet Food Compositions Having Antimicrobial Activity” (priority 2010, published 2017)
